Measurements published in patent publication US20060241114A1, “Derivatives of azasugars as anticancer agents” (priority 2003, published 2006).

What was measured:
[1] = test system: DU145 (prostate carcinoma); test: In vitro growth inhibition screen (sulphorhodamine B), DU145; assay type: cell-based, human; conditions: DU145 cells, incubated for 48 hours, sulphorhodamine B dye; read-out: GI50 (concentration which inhibits the cell growth by 50%), DU145 Prostate carcinoma
Outline: (§1)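 SRB assay, 48 h treatment, RPMI 1640 + 10% FCS, 37° C, 5% CO2; dose range ≧100 μM–10 nM in ten-fold steps; OD 490 nm; GI50 derived.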

[2] = test system: HT29 (colorectal adenocarcinoma); test: In vitro growth inhibition screen (sulphorhodamine B), HT29; assay type: cell-based, human; conditions: HT29 cells, incubated for 48 hours, sulphorhodamine B dye; read-out: GI50 (concentration which inhibits the cell growth by 50%), HT29 Colorectal adenocarcinoma
Outline: as §1

LOX (melanoma) = test: In vitro growth inhibition screen (sulphorhodamine B), LOX; assay type: cell-based, human; conditions: LOX cells, incubated for 48 hours, sulphorhodamine B dye; read-out: GI50 (concentration which inhibits the cell growth by 50%), LOX Melanoma
Outline: as §1

[3] = test system: MCF7 (breast adenocarcinoma); test: In vitro growth inhibition screen (sulphorhodamine B), MCF7; assay type: cell-based, human; conditions: MCF7 cells, incubated for 48 hours, sulphorhodamine B dye; read-out: GI50 (concentration which inhibits the cell growth by 50%), MCF7 Breast adenocarcinoma
Outline: as §1

[4] = test system: MCF7ADR (adriamycin resistant breast adenocarcinoma); test: In vitro growth inhibition screen (sulphorhodamine B), MCF7ADR; assay type: cell-based, human; conditions: MCF7ADR cells, incubated for 48 hours, sulphorhodamine B dye; read-out: GI50 (concentration which inhibits the cell growth by 50%), MCF7ADR Adriamycin Resistant Breast adenocarcinoma
Outline: as §1

[5] = test system: U251 (human glioblastoma); test: In vitro growth inhibition screen (sulphorhodamine B), U251; assay type: cell-based; conditions: U251 cells, incubated for 48 hours, sulphorhodamine B dye; read-out: GI50 (concentration which inhibits the cell growth by 50%), U251 Human glioblastoma astrocytoma
Outline: as §1

SMILES | GI50 [1] | GI50 [2] | GI50 (LOX (melanoma)) | GI50 [3] | GI50 [4] | GI50 [5]
CCCN1C(=O)[C@H](OCc2ccccc2)[C@@H](OCc2ccccc2)[C@H](OCc2ccccc2)[C@H]1CNC(=O)Cn1ncn(-c2ccc(N3CCN(c4ccc(Cl)cc4)CC3)cc2)c1=O [Compound No. 60, 2,3,4-Tri-O-benzyl-6-N-{2-[(4-(4-(chlorophenyl)-piperazin-1-yl)-phenyl)-3(2H,4H)-1,2,4-triazol-3-onyl]acetyl}-H-propyl-D-gluco-δ-lactam] | 108 µM | 258 µM | 158 µM | 101 µM | 281 µM | 190 µM
CCCN1C(=O)[C@H](OCc2ccccc2)[C@@H](OCc2ccccc2)[C@H](OCc2ccccc2)[C@H]1CNC(=O)CN1C[C@H](OCc2ccccc2)[C@@H](OCc2ccccc2)[C@H](OCc2ccccc2)[C@H]1COCc1ccccc1 [Compound No. 61, 2,3,4-Tri-O-benzyl-6-N-{2-[2,3,4,6-tetra-O-benzyl-1,5-dideoxy-1,5-imino-glucitolyl]acetyl}-N-propyl-D-gluco-δ-lactam] | 195 µM | > 618 µM | > 618 µM | > 618 µM | > 618 µM | > 618 µM
CCCN1C(=O)[C@H](OCc2ccccc2)[C@@H](OCc2ccccc2)[C@H](OCc2ccccc2)[C@H]1CNC(=O)CN1CCN(c2c(CC)cccc2CC)CC1 [Compound No. 62, 2,3,4-Tri-O-benzyl-6-N-{2-[N-(2,6-diethylphenyl)piperazinyl]acetyl}-N-propyl-D-gluco-δ-lactam] | 24.3 µM | 24.9 µM | 37.7 µM | > 402 µM | > 402 µM | 30 µM
CCCN1C(=O)[C@H](OCc2ccccc2)[C@@H](OCc2ccccc2)[C@H](OCc2ccccc2)[C@H]1CNC(=O)CN1C(=O)c2ccccc2C1=O [Compound No. 63] | 60.6 µM | 42 µM | 55.3 µM | 66.8 µM | 246 µM | 117 µM
CCCN1C(=O)[C@H](OCc2ccccc2)[C@@H](OCc2ccccc2)[C@H](OCc2ccccc2)[C@H]1CNC(=O)CN1CCN(c2ccc(Cl)cc2)CC1 [Compound No. 64, 2,3,4-Tri-O-benzyl-6-N-{2-[4-(4-chlorophenyl)piperazinyl]acetyl}-N-propyl-D-gluco-δ-lactam] | 12.5 µM | 8.1 µM | 6.3 µM | 1.5 µM | 4.3 µM | 3.7 µM
CCCN1C(=O)[C@H](OCc2ccccc2)[C@@H](OCc2ccccc2)[C@H](OCc2ccccc2)[C@H]1CNC(=O)CN1CCN(c2cccc(C(F)(F)F)c2)CC1 [Compound No. 65, 2,3,4-Tri-O-benzyl-6-N-{2-[4-(3-(trifluoromethyl)phenyl)piperazin-1-yl]acetyl}-N-propyl-D-gluco-δ-lactam] | 13.1 µM | 5.6 µM | 4 µM | 2 µM | 3.5 µM | 3.4 µM
CCCN1C(=O)[C@H](O)[C@@H](O)[C@H](O)[C@H]1CNC(=O)Cn1cncn1 [Compound No. 66, N-Propyl-6-{2-[triazolyl]-acetyl}-D-gluco-δ-lactam] | 82.9 µM | 149 µM | 58.2 µM | 124 µM | 196 µM | 142 µM
CCCN1C(=O)[C@H](O)[C@@H](O)[C@H](O)[C@H]1CNC(=O)CN1CCN(C)CC1 [Compound No. 68, 6-N-{2-[(N-Methyl)piperazinyl]acetyl}-N-propyl-D-gluco-δ-lactam] | 39 µM | 14.1 µM | 48.2 µM | 32.4 µM | 27.7 µM | 22 µM
C=CCN1C(=O)[C@H](OCc2ccccc2)[C@@H](OCc2ccccc2)[C@H](OCc2ccccc2)[C@H]1Cn1ccnn1 [Compound No. 69, N-Allyl-2,3,4-tri-O-benzyl-6-triazolyl-D-gluco-δ-lactam] | 51 µM | 31.6 µM | 47.4 µM | 47.8 µM | 39.4 µM | 37.9 µM
CCCN1C(=O)[C@H](O)[C@@H](O)[C@H](O)[C@H]1Cn1cncn1 [Compound No. 70, 6-Triazolyl-N-propyl-D-gluco-δ-lactam] | 252 µM | 302 µM | 232 µM | 340 µM | 894 µM | 516 µM
O[C@H]1[C@H](O)[C@@H](Cn2cncn2)NC[C@@H]1O [Compound No. 72, 1,5-Dideoxy-1,5-imino-6-triazolyl-glucitol] | 340 µM | 244 µM | 146 µM | 208 µM | 275 µM | 282 µM
CCCN1C[C@H](O)[C@@H](O)[C@H](O)[C@H]1Cn1ccnn1 [Compound No. 73, 1,5-Dideoxy-1,5-imino-N-propyl-6-triazolyl glucitol] | 267 µM | 470 µM | 247 µM | 320 µM | 291 µM | 506 µM
CCCN1C(=O)[C@H](OCc2ccccc2)[C@@H](OCc2ccccc2)[C@H](OCc2ccccc2)[C@H]1CNC(=O)Oc1ccccc1 [Compound No. 74, 2,3,4-Tri-O-benzyl-6-N-[phenyl carbamate]-N-propyl-D-gluco-δ-lactam] | 90.9 µM | 10.7 µM | 51.8 µM | 25.4 µM | 26.1 µM | 34.2 µM
CCCN1C(=O)[C@H](OCc2ccccc2)[C@@H](OCc2ccccc2)[C@H](OCc2ccccc2)[C@H]1CNC(=O)N1CCN(c2ccc(Cl)cc2)CC1 [Compound No. 75, 2,3,4-Tri-O-benzyl-6-N-{4-[4-chlorophenyl]piperazinylcarboxamido}-N-propyl-D-gluco-δ-lactam] | 25.7 µM | 18.4 µM | 16.9 µM | 1.6 µM | 11.6 µM | 8.8 µM
CCCN1C(=O)[C@H](OCc2ccccc2)[C@@H](OCc2ccccc2)[C@H](OCc2ccccc2)[C@H]1CNC(=O)N1CCN(c2ccc(F)cc2)CC1 [Compound No. 76, 2,3,4-Tri-O-benzyl-6-N-{4-[4-fluorophenyl]piperazinylcarboxamido}-N-propyl-D-gluco-δ-lactam] | 45.2 µM | 28.6 µM | 40.9 µM | 38.6 µM | 90.7 µM | 25.7 µM
CCCN1C(=O)[C@H](OCc2ccccc2)[C@@H](OCc2ccccc2)[C@H](OCc2ccccc2)[C@H]1CNC(=O)N1CCc2ccccc21 [Compound No. 77, 2,3,4-Tri-O-benzyl-6-N-{1,2-dihydro(2H)-indolylcarboxamido}-N-propyl-D-gluco-δ-lactam] | 49.4 µM | 17.5 µM | 29.5 µM | 56.1 µM | 69.1 µM | 28.6 µM
CCCN1C(=O)[C@H](OCc2ccccc2)[C@@H](OCc2ccccc2)[C@H](OCc2ccccc2)[C@H]1CNC(=O)N1CC2C(C1)C2NC(C)=O (stereo partly drawn) [Compound No. 79, 2,3,4-Tri-O-benzyl-6-N-{(1α,5α,6α)-6-acetylamino-azabicyclo[3.1.0]hexylcarboxamido}-N-propyl-D-gluco-δ-lactam] | 18.9 µM | 21.8 µM | 7.4 µM | 18.2 µM | 17.9 µM | 15.5 µM
